Here are results for 1 molecule from US9410125B2, “Medium for mammalian somatic cells and additive therefor” (FUJIREBIO INC., priority 2007, dated 2016).

The experiment has as its system human bone marrow-derived mesenchymal stem cells (hMSCs). Put plainly: Adipogenic differentiation of hMSCs (Oil Red O staining). In kind it is cell-based. To be noted: Example 2, differentiation into adipocytes and osteocytes. The protocol:
Cells maintained for several passages using the conventional medium in (2-2) and 1% S-3, 1% FCS were transferred to wells in a 96-well plate each containing 0.1 mL of an adipocyte differentiation medium (DMEM, 10% FCS, 500 μM isobutylmethylxanthine (IBMX), 1 μM dexamethasone, 1 μM insulin, 1 μM Rosiglitazone) at a cell density of 20,000 cells/cm2, and cultured at 37° C. under 5% CO2 for 14 days, to induce differentiation into adipocytes. differentiated cells were confirmed by Oil Red O staining.
Cells maintained for several passages using conventional medium A and serum-free growth medium A were transferred to wells in a 48-well plate each containing 0.3 mL of an adipocyte differentiation medium (DMEM, 10% FCS, 500 μM IBMX, 1 μM dexamethasone, 1 μM insulin, 1 μM Rosiglitazone) at a cell density of 30,000 cells/cm2, and cultured at 37° C. under 5% CO2 for 14 days, to induce differentiation into adipocytes. differentiated cells were confirmed by Oil Red O staining. […]

For `CCCCCCCCCCCCC/C=C/[C@@H](O)[C@@H](N)COP(=O)(O)O` [S1P, sphingosine-1-phosphate], the “tendency in differentiation when used instead of LPA as the Edg ligand” value is given as “did not change”.
